The test system of data set [1] is Human immunodeficiency virus 1. Description: Antiviral activity against HIV1 3B infected in human MT4 cells assessed as protection against virus-induced cytopathic effect incubated for 5 days by MTT assay. The class given is functional, organism-based. Particulars: Human immunodeficiency virus 1, 3B, MT4, 120 h. A general note: Damage to the host cells serves as the signal in cytopathic effect assays.

In data set [2] the test system is Human immunodeficiency virus 1. Description: Antiviral activity against HIV1 RES056 infected in human MT4 cells assessed as protection against virus-induced cytopathic effect incubated for 5 days by MTT assay. The class given is functional, organism-based. As to conditions: Human immunodeficiency virus 1, RES056, MT4, 120 h.
Data set [3] in a line: Cytotoxicity against mock-infected human MT4 cells assessed as reduction in cell viability measured after 5 days by MTT assay. The class given is cell-based. Particulars: time 5 day. (In general: Tetrazolium assays rely on reduction of a dye to a coloured formazan, in cell work by metabolically active cells.)
Data set [4] can be described thus: Selectivity index, ratio of CC50 for mock-infected human MT4 cells to EC50 for HIV1 3B infected in human MT4 cells. As to conditions: MT4 cells (mock-infected and HIV1 3B infected), read-out: Ratio CC50/EC50. The class given is toxicity, cell-based.
Data set [5] can be described thus: Selectivity index, ratio of CC50 for mock-infected human MT4 cells to EC50 for HIV1 RES056 infected in human MT4 cells. The class given is toxicity, cell-based. As to conditions: MT4 cells (mock-infected and HIV1 RES056 infected), read-out: Ratio CC50/EC50.
Data set [6] deals with Human immunodeficiency virus 1. Description: Potency index, ratio of EFV EC50 to test compound EC50 for antiviral activity against HIV1 RES056 infected in human MT4 cells. The class given is functional.
Data set [7] has as its system Human immunodeficiency virus 1. Description: Antiviral activity against HIV1 harboring reverse transcriptase E138K mutant infected in human MT4 cells assessed as protection against virus-induced cytopathic effect incubated for 5 days by MTT assay. Type of data set: functional, organism-based. Particulars: Human immunodeficiency virus 1, MT4, 120 h.
For data set [8], the system named is Human immunodeficiency virus 1. Description: Antiviral activity against HIV1 harboring reverse transcriptase K103N mutant infected in human MT4 cells assessed as protection against virus-induced cytopathic effect incubated for 5 days by MTT assay. The class given is functional, organism-based. As to conditions: Human immunodeficiency virus 1, MT4, 120 h.
For data set [9], the system named is Human immunodeficiency virus 1. Description: Antiviral activity against HIV1 harboring reverse transcriptase Y181C mutant infected in human MT4 cells assessed as protection against virus-induced cytopathic effect incubated for 5 days by MTT assay. The class given is functional, organism-based. Particulars: Human immunodeficiency virus 1, MT4, 120 h.
Data set [10] relates to Human immunodeficiency virus 1. Description: Antiviral activity against HIV1 harboring reverse transcriptase Y188L mutant infected in human MT4 cells assessed as protection against virus-induced cytopathic effect incubated for 5 days by MTT assay. As to conditions: Human immunodeficiency virus 1, MT4, 120 h. The class given is functional, organism-based.
The subject of data set [11] is Human immunodeficiency virus 1. Description: Antiviral activity against HIV1 harboring reverse transcriptase L100I mutant infected in human MT4 cells assessed as protection against virus-induced cytopathic effect incubated for 5 days by MTT assay. As to conditions: Human immunodeficiency virus 1, MT4, 120 h. Type of data set: functional, organism-based.
Data set [12] has as its system Human immunodeficiency virus 1. Description: Antiviral activity against HIV1 harboring reverse transcriptase F227L/V106A double mutant infected in human MT4 cells assessed as protection against virus-induced cytopathic effect incubated for 5 days by MTT assay. Type of data set: functional, organism-based. As to conditions: Human immunodeficiency virus 1, MT4, 120 h.

The target in data set [13] is Human immunodeficiency virus type 1 reverse transcriptase (Human immunodeficiency virus 1, UniProt Q72547). Description: Inhibition of wild type HIV1 p66/p51 reverse transcriptase using poly(rA) as template, oligo(dT)16 as primer and RNA/DNA as substrate measured after 40 mins by PICOGreen-dye based spectrofluorimetry analysis.
Data set [14] is described as follows: Half life in human liver microsomes at 1 uM in presence of NADPH by LC-MS/MS analysis. Type of data set: ADME, Microsome.
In data set [15] the test system is Human immunodeficiency virus 2. Description: Antiviral activity against HIV2 ROD infected in human MT4 cells assessed as protection against virus-induced cytopathogenicity after 5 days by MTT assay. Type of data set: functional, organism-based. Particulars: time 5.0 day.
Data set [16] in a line: in vitro. As to conditions: human, liver microsomes. (Liver microsomes are vesicles of endoplasmic reticulum, rich in cytochrome P450 enzymes.)
The test system of data set [17] is Human immunodeficiency virus 1. Description: Potency index, ratio of ETR EC50 to test compound EC50 for antiviral activity against HIV1 harboring reverse transcriptase E138K mutant infected in human MT4 cells. The class given is functional.

Data on eight compounds can be found in ChEMBL document CHEMBL4831527, “Structure-Based Design and Discovery of Pyridyl-Bearing Fused Bicyclic HIV-1 Inhibitors: Synthesis, Biological Characterization, and Molecular Modeling Studies” (J Med Chem, 2021).

Calls of active or inactive are those of the source. No cut-off for these calls is given here.

Usually EC50 stands for the concentration giving half of the maximal effect. What is called CC50 is the concentration giving 50% cytotoxicity. For orientation: IC50 means the concentration at which inhibition is half-maximal. Low readings indicate greater potency in that assay, high ones weaker potency in that assay. In general, half-life refers to how long it takes for the measured level to halve. The CLint scaled is the capacity of the preparation to metabolise the compound, expressed as a volume cleared per time. Turning to `Cc1cc(/C=C/C#N)cc(C)c1Oc1nc(Nc2ccc(C#N)cc2)nc2c1CCCC2`, the EC50 in data set [1] was determined as 14 nM; in data set [2], 68.2 nM; in data set [7], 61.3 nM; in data set [8] it was 17 nM; in data set [9] it was 40.9 nM; in [10], 77.9 nM. Also, the EC50 was 18 nM in data set [11] and 95.3 nM in data set [12]. For the same compound, the CC50 at 120 h in data set [3] amounted to 7.2 µM. Besides, the values for the selectivity ratio in [4] and in data set [5] were 513 and 105, respectively. The “Ratio EC50” value in data set [6] is on record as 2.1. The compound further displayed a 50% inhibitory concentration (IC50) in [13] of 119 nM. In addition, the half-life at 1 µM in data set [14] is 27.4 min. Also, in [15], the outcome was inactive. The compound further displayed a CLint scaled at 1 h, 1 µM in data set [16] of 45.5 mL/min/kg.
`Cc1cc(/C=C/C#N)cc(C)c1Nc1ccnc(Nc2ccc(C#N)cc2)n1` [RILPIVIRINE]: the half-life at 1 µM in data set [14] is 12.8 min. This compound also displayed a CLint scaled at 1 h, 1 µM in [16] of 97.6 mL/min/kg.
As for `Cc1cc(/C=C/C#N)cc(C)c1Oc1nc(Nc2ccc(C#N)nc2)nc2c1CCCC2`, the EC50 in [1] was 7.6 nM; in data set [2], 58.8 nM; in data set [7], above 8830 nM; in [8] it was 7.7 nM; in data set [9], 34.8 nM; in data set [10], above 8830 nM. For the same compound, the EC50 in [11] is 12.8 nM; in data set [12] it was above 8830 nM. Moreover, the CC50 at 120 h in [3] was 8.8 µM. Besides, the selectivity ratio was 1160 in [4] and 150 in data set [5]. The “Ratio EC50” value in [6] was 2.4. Further, the IC50 in data set [13] turned out to be 147 nM. Also, the half-life at 1 µM in data set [14] was found to be 26.5 min. In data set [15], the outcome was inactive. Moreover, the CLint scaled at 1 h, 1 µM in data set [16] stood at 47 mL/min/kg.
On to `Cc1cc(C#N)cc(C)c1Oc1nc(Nc2ccc(C#N)cc2)nc2c1ccn2CC(=O)N1CCOCC1`, for which the half-maximal effective concentration (EC50) in data set [1] amounted to 7.7 nM; in data set [2], 782 nM; in data set [7] it was 6.8 nM; in data set [8] it was 5.9 nM; in data set [9] it was 148 nM; in [10], 56.7 nM. The values for the EC50 in [11] and in data set [12] were 154 nM and 146 nM, respectively. In addition, in data set [3], the CC50 at 120 h came out at 2.3 µM. Further, the figures for the selectivity ratio in [4] and in data set [5] were 297 and 3, respectively. Besides, the “Ratio EC50” value in data set [17] worked out at 2.2. In [13], this compound registered an IC50 of 155 nM. Besides, the half-life at 1 µM in data set [14] is 3.1 min. In addition, the result in [15] was inactive. In [16], this compound gave a CLint scaled at 1 h, 1 µM of 397 mL/min/kg.
For the compound `Cc1cc(/C=C/C#N)cc(C)c1Oc1nc(Nc2ccc(C#N)cc2)nn2cccc12`, the 50% effective concentration (EC50) in data set [1] was 12.6 nM; in [2] it was 61.1 nM; in data set [7], above 41300 nM; in [8] it was 4.8 nM; in data set [9], 19.7 nM; in [10], above 41300 nM. Moreover, the EC50 in data set [11] is 7.8 nM; in [12], above 41300 nM. Besides, in [3], the CC50 at 120 h is 5 µM. Further, the selectivity ratio was 395 in data set [4] and 81 in [5]. Also, the “Ratio EC50” value in data set [6] is listed as 2.4. In data set [13], this compound returned an IC50 of 43 nM. In addition, in data set [14], the half-life at 1 µM is 43.3 min. In addition, the outcome in data set [15] was inactive. The CLint scaled at 1 h, 1 µM in data set [16] was 28.8 mL/min/kg.
Turning to `O=C(O)Cc1ccccc1Nc1c(Cl)cccc1Cl` [DICLOFENAC], the CLint scaled at 1 h, 1 µM in [16] is 310 mL/min/kg.
Consider `Cc1cc(C#N)cc(C)c1Oc1nc(Nc2ccc(CC#N)cc2)nc2c1CCCC2`, for which the EC50 in data set [1] was 11.7 nM; in data set [2], 1020 nM; in data set [7] it was above 4520 nM; in [8] it was 9.9 nM; in [9] it was 283 nM; in [10], above 4520 nM. The EC50 in data set [11] was 68.5 nM; in data set [12], above 4520 nM. Further, in data set [3], the cytotoxic concentration (CC50) at 120 h was determined as 4.5 µM. Also, the selectivity ratio came to 385 in [4] and 4 in [5]. Besides, the IC50 in [13] was determined as 53 nM. Also, in data set [15], the outcome was inactive.
In turn, `C[C@]12CC[C@H]3[C@@H](CCC4=CC(=O)CC[C@@]43C)[C@@H]1CC[C@@H]2O` [TESTOSTERONE] returned a CLint scaled at 1 h, 1 µM in [16] of 126 mL/min/kg.
